Key:
PPARα = target: T1, PPARα (Homo sapiens, UniProt Q07869); experiment: LanthaScreen TR-FRET binding assay, PPARα; conditions: 2 h incubation, mean of 3 replicates ± SEM
T1 sequence (Q07869 239-466 limits assumed): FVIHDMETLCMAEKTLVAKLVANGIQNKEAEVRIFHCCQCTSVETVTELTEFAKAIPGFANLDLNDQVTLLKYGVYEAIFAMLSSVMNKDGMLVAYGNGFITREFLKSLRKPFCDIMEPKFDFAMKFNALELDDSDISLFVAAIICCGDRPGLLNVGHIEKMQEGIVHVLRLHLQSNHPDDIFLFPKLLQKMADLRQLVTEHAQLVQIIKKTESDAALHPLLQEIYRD
Method: The LanthaScreen™ TR-FRET binding assay was performed following the manufacturer's guidelines (PV4894, Invitrogen) as follows, 20 mM stock solution of the ligand or control in DMSO were serially diluted using 100% DMSO to produce a range of concentrations from 100 μM to 1 pM. The test compound solutions were mixed with the reaction buffer in a 1 (ligand) in 10 (reaction buffer) dilution for a final 2X ligand concentration. This was mixed with the reaction components (glutathione S-transferase (GST)-PPPARγLBD (0.5 nM)/, terbium (Tb)-labelled anti-GST antibody (5 nM) and Fluormone pan-PPAR green (5 nM for PPARγ; 20 nM for PPARα) at room temperature in a ratio of 8 μLl 2X ligand solution: 4 μLl of 4XFluormone: and 4 μLl 4X GST-PPPARγLBD/terbium (Tb)-labelled anti-GST antibody to produce a final reaction mixture volume of 16 μL. The concentration of DMSO in the final reaction mixture was 5%. The reaction mixture was kept at room temperature for 2 h prior to recording the TR-FRET emission spectra using a CLARIOstar Plus microplate reader (BMG Labtech). […] Results are expressed as the ratio of fluorescence intensity at 520 nm (Fluormone emission) and 490 nm (Tb emission). […] For each compound three serial dilutions were prepared and measured separately. The IC50 and SEM values were determined using a sigmoidal dose-response equation with varying slope using GraphPad Prism.

[1] = tested on: HAP1, HAP1 PPARA KO, and HAP1 PPARG KO cell lines; experiment: MTT cell metabolic activity assay, HAP1 lines; assay type: cell-based, human
Method: Cells were harvested and seeded in 96-flat well plates (Corning) at a density of 5 x 10^4 cells/mL overnight. Media was removed and 100 μL media with GW6471 or GW9662 at indicated concentrations was added to each well. Cell viability and toxicity were measured at 48 h. Cells were incubated with 50 μL of a 2 mg/mL solution of (3-(4,5-dimethyl-thiazole-2-yl)-2,5-[…] tetrazolium (MTT, Sigma-Aldrich) in PBS for 4 h and then exposed to 100 μL dimethyl sulfoxide (DMSO; Sigma-Aldrich). Cell viability was measured by absorption at 570 nm in a microplate spectrophotometer (Spectromax 250 plate reader). Results are shown as relative cell viability.

AB1-Luc = experiment: Intraperitoneal AB1-Luc mesothelioma model, bioluminescence and histology; assay type: in vivo, BALB/c mice; conditions: for Tumor growth (bioluminescence, average radiance): versus controls
Method: Cells were trypsinized and washed two times in phosphate buffer saline (PBS) and counted with trypan blue dye. For the SC tumour model, mice were shaved on the right-hand flank and inoculated with 5x10^5 AB1 or 1x10^6 AE17 cells suspended in 100 μL PBS. Tumour volume (mm^3) was monitored with callipers. For the IPL tumour model, mice were anaesthetised under continuous isofluorane and inoculated with 5 x 10^5 AB1 or 1 x 10^6 AE17 cells suspended in 200 μL PBS into the pleural space as previously described ([Lansley et al., 2015]) Tumour size was determined by weighting together the tumour with the lungs minus the weight of aged matched healthy lungs. For the IP tumour model, mice where inoculated in the intraperitoneal cavity on the right flank with 5x10^5 AB1-Luc cells suspended in 200 μL PBS. Tumour size was determined by in vivo imaging system (IVIS), see below. All mice were euthanized in accordance with animal ethics guidelines.
Female BALB/cJAusb mice (10–12 weeks) were inoculated IP with 5 x 10^5 AB1-Luc on their right flank. Mice were randomly allocated to the different groups on the first treatment day. Treatment with ABT + GW6471 or GW6471 alone started on day 4 after tumour inoculation. IP Injections and concentrations were used as previously described in the “Mouse pharmacokinetic studies” section in experimental model and subject details. Initial mouse weight was measured immediately before the first injection, and it was used to calculate weight change daily. Mice were dosed for a maximum of seven consecutive days. In vivo imaging system (IVIS) (see below) was performed on days 3 (before treatment), 7 (during treatment) and 11 (after treatment). Mice were euthanized on day 11 in accordance with animal ethics guidelines and organs were harvested for staining.
XenoLight D-Luciferin potassium salt (PerkinElmer, VIC, Australia) was used at a 150 mg/kg concentration dissolved in sterile PBS. Approximately 150 μL (15 mg/mL concentration) was injected subcutaneously per mouse. […]

[2] = tested on: head and neck paraganglioma; set-up: method as in Florio et al., 2017; conditions: 24 μM, by cell-cycle arrest and caspase-dependent apoptosis; ref Florio et al., 2017; cited from earlier work

Which IC50 (PPARα) does the source give for CCC(=O)NC[C@H](Cc1ccc(OCCc2nc(-c3ccccc3)oc2C)cc1)N/C(C)=C\C(=O)c1ccc(C(F)(F)F)cc1 [GW6471] here?
The IC50 was 95.3 ± 42 nM.

What about the “Cellular proliferation (MTT)” value ([1]; HAP1, HAP1 PPARA KO, HAP1 PPARG KO, 0.391-100 μM) of the same compound?
The value was “inhibited cellular proliferation at micromolar concentrations”.

And the “Growth inhibition compared between parental and PPARA/PPARG KO cells” value ([1]; HAP1 versus HAP1 PPARA KO and HAP1 PPARG KO)?
Its value is “identical”.

What about the “Tumor growth (bioluminescence, average radiance)” value (AB1-Luc; GW6471 10 mg/kg IP daily from day 4, with ABT 50 mg/kg pre-treatment (ABT + GW6471)) of the same compound?
The value was “no significant effect on tumor growth”.

And the “Tumor growth (bioluminescence, average radiance)” value (AB1-Luc; GW6471 10 mg/kg IP daily from day 4, without ABT)?
Its value is “no significant effect on tumor growth”.

What about the “Mesothelioma invasion and proliferation in vivo (histology)” value (AB1-Luc; GW6471 with or without ABT, all mice showed invasion into intestine and pancreas) of the same compound?
The value was “no impact on mesothelioma invasion and proliferation in vivo”.

And the “Cell viability and growth” value [2]?
The value was “reduced cell viability and growth”.

— article PMC8692993, “PPARα and PPARγ activation is associated with pleural mesothelioma invasion but therapeutic inhibition is ineffective” (iScience, 2021)
